Assay results taken from patent publication US20120164756A1, “ASPIRIN ASSAY” (RANDOX LABORATORIES LIMITED, priority 2009, published 2012).

Tests used:
[1] = system: antibodies raised from SUA-BTG; experiment: Biochip-based competitive immunoassay (salicyluric acid dose-response curve and cross-reactivity profile); format: binding, sheep; details: Concentration 350 μg/ml
Description: In order to generate polyclonal antisera, the immunogen (prepared in Example 2) was mixed with primary complete Freund's Adjuvant (Sigma) and injected into a host sheep to provide target-specific polyclonal antisera. On a monthly basis the immunogen (with incomplete Freund's Adjuvant) was injected into the sheep. The host animal was bled to yield a suitable volume of specific antiserum. IgG was then extracted from the antisera via Caprylic acid/ammonium sulphate precipitation of immunoglobulin.
Nine calibrator solutions of salicyluric acid (0-5.00 μg/ml) were prepared in calibrator buffer for standard curves. Cross-reactants (aspirin, 4-aminosalcylic acid, benzoic acid, diflusinal, gentisic acid, gentisuric acid, ibuprofen, methyl salicylate, salicylic acid and salsalate) were diluted in calibrator buffer (0-350 μg/ml). Assay diluent (155 μl), sample/antigen (25 μl), and diluted conjugate (Hapten 1-HRP 120 μl) were added to biochips wells. Biochips were incubated for 30 min at 30° C. in a thermoshaker at 370 rpm, and then washed with TBST buffer (2 quick washes followed by 4 washes with 2 min intervals). Biochips were developed with 250 μl luminol plus: peroxide (1:1) for 2 min in the dark, and were then imaged on the Randox Investigator (2×60 sec images).

[2] = cited from earlier work
[3] = cited from earlier work; for share of excreted product: excretion after aspirin ingestion; for kinetics of formation: hepatic metabolism of salicylic acid
[4] = after ingestion of a therapeutic amount of aspirin

Compound	% Cross-reactivity [1]	share of excreted product [3]	kinetics of formation [3]	also measured
Nc1ccc(C(=O)O)c(O)c1 [4-aminosalicylic acid]	<<1.00%			
CC(=O)Oc1ccccc1C(=O)O [Aspirin, 2-acetoxybenzoic acid]	<<1.00%			moderately toxic concentration (MTC), aspirin equivalent ([2]; Chyka et al (2007)): 6.5 g; toxic concentration, aspirin ingestion ([2]; general literature): > 300 mg/kg; concentrations considered to be toxic ([2]; serum): exceeding 300 mg/l; therapeutic concentration range in serum ([2]; serum): 150 to 300 mg/L; time until only trace levels remain [3, 4]: ≤ 2 h
O=C(O)c1ccccc1 [Benzoic acid]	<<1.00%			
O=C(O)c1cc(-c2ccc(F)cc2F)ccc1O [Diflusinal]	<<1.00%			
O=C(O)c1cc(O)ccc1O [Gentisic acid]	<<1.00%	approximately 1%	first-order kinetics	
O=C(O)CNC(=O)c1cc(O)ccc1O [Gentisuric acid]	<<1.00%			
O=C(O)CNC(=O)c1ccccc1 [Hippuric acid]	<<1.00%			
CC(C)Cc1ccc(C(C)C(=O)O)cc1 (stereo not drawn) [Ibuprofen]	<<1.00%			
COC(=O)c1ccccc1O [Methyl salicylate]	<<1.00%			
O=C(O)c1ccccc1O [Salicylic acid, salicylic acid]	<<1.00%	approximately 10%		therapeutic level in blood ([2]; blood of a healthy adult): 150 to 300 mg/L; time of peak levels [3, 4]: 1 to 2 h; half-life ([3]; in serum): approximately 6 hours
O=C(O)CNC(=O)c1ccccc1O [Salicyluric acid, salicyluric acid]		approximately 75%	Michaelis-Menten or zero-order kinetics	
O=C(O[C@@H]1O[C@H](C(=O)O)[C@@H](O)[C@H](O)[C@H]1O)c1ccccc1O [salicylacyl glucuronide]		approximately 5%	first-order kinetics	
O=C(O)c1ccccc1O[C@@H]1O[C@H](C(=O)O)[C@@H](O)[C@H](O)[C@H]1O [salicylphenolic glucuronide]		approximately 8%	Michaelis-Menten or zero-order kinetics	
